The text below walks through data of patent publication US11385234B2, “Methods and systems for detecting an analyte or classifying a sample” (Commonwealth Scientific and Industrial Research Organisation, priority 2012, dated 2022).

Values joined by “and” are separate entries in the source; they are usually repeats but may differ in a detail not shown here. Equal entries are not always repeated.

One series deals with GFP^2—MBP—RLuc2 (Escherichia coli, UniProt P0AEX9). Put plainly: BRET^2 tagged MBP sugar assay, plate reader. The series is classed as binding. The note with it: 0.1 mM sugar, 30 minutes at 28° C., 1 μM protein. The procedure: 1 μM purified protein was used for all the energy transfer assays (final volume of 100 μL). […] Purified protein was incubated with the sugar dissolved in double deionised water or water for 30 minutes at 28° C.
BRET ratios were calculated as the ratio of maximum acceptor emission intensity to maximum donor emission intensity.
All data analysis was carried out using GraphPad Prism (version 5 for Windows, Graphpad Software, San Diego, Calif., USA). All data will be reported as means± standard deviation (SD) unless otherwise stated in the text. Two-tailed unpaired t-tests will be performed using Graphpad prism. Statistical significance is defined as p<0.05.

In series [1] the target is GMR sensor (GFP^2—MBP—RLUC2) (Escherichia coli, UniProt P0AEX9). The note with it: 0.1 mM sugar.
Procedure: On-chip measurements were carried out with microfluidic mixers with two inlets, a passive micromixer and an integrated optical detection chamber. BRET^2 measurements were recorded by using two photo multiplier tubes one equipped with an RLuc/Clz400a emission filter (410 nm bandpass 80 nm) and the other with a GFP^2 emission filter (515 nm bandpass 30m). The optical emission was collected by using an optical fiber with 1 mm core diameter aligned with on-chip optical detection chamber through a dichroic mirror.
The preparation was then mixed on-chip with 5 μM coelenterazine 400a and the optical signal was recorded from the detection chamber. The control experiments was carried out by incubating protein preparations with water and mixing on the chip under the same conditions.
Sensitivity assays were carried out on a two input microfluidic mixing device (FIG. 8b) with a serpentine common channel of L=18 mm. The BRET reaction chamber was Ø=4 mm and H=1 mm with no mirror. A bifurcated light guide was used with a 6 mm trunk and NA=0.59. […] The incubated sample and 31.25 μM Clz400a substrate were each pumped onto the chip at input flow rates of 400 μl/hr. The trunk end of the light guide was used to collect signal from the BRET reaction chamber. […] The BRET^2 signal was measured at each concentration. […]
Series [2] has as its system BRET^2 based thrombin biosensor. The note with it: cited from earlier work.
The test system of another series is GFP^2-RG-RLuc biosensor. Nature of the series: Hybrid BRET (BRET^H) thrombin cleavage assay, microplate. The series is classed as biochemical. Particulars: 54 nM thrombin, 90 minutes, 30° C.; 1 μM fusion protein, 5 μM native coelenterazine. From the text:
A combination of BRET^1 and BRET^2 techniques was used and referred to herein as hybrid BRET. Specifically, RLuc with native coelenterazine substrate was used as the bioluminescent donor and GFP^2 as the acceptor molecule. The donor and acceptor were linked by a peptide sequence containing the thrombin cleavage site ([…]↓ GSLQ (RG)) (GFP^2-RG-RLuc) and expressed in E. coli.
GFP^2-RG-RLuc biosensor was expressed and purified as reported previously (Dacres et al. 2009a). The purified fusion protein was in thrombin cleavage buffer (10 mM Tris (pH 8.0), 100 mM NaCl, 1 mM EDTA). The final concentration of the native coelenterazine substrate (Biosynth) used for microfluidic based assays was 58.6 μM and 5 μM for plate-reader based assays. 1 unit (U)/μl thrombin protease (Amersham Biosciences) solution was prepared in 1× phosphate buffer saline (PBS).
Simultaneous dual emission hybrid BRET measurements were carried out both in a microplate using a SpectraMax M2 spectrofluorimeter (Molecular Devices) and in the microfluidics apparatus described below. Spectral scans of BRET constructs were recorded using the luminescence scan mode between 400 and 650 nm on addition of 5 μM native coelenterazine substrate to 1 μM of biosensor. […]
Using the microplate spectrometer, hybrid BRET ratios were calculated as the ratio of bioluminescence emissions measured at 500 nm and 470 nm. […]

The subject of series [3] is GFP^2-RG-RLuc thrombin sensor. Put plainly: BRET^2 thrombin sensor in microfluidic chip with optical detection chamber. The format is biochemical. From the text: In a BRET^2 system, Renilla luciferase (RLuc) with coelenterazine 400a (CLZ400A) substrate was used as the photon donor and GFP^2 was used as the acceptor molecule. As the luminescence of BRET^2 is 100-fold smaller than that of the BRET^1.5, the BRET^2 reaction requires efficient mixing at optimal temperature, detection chamber size, flow rates and concentrations to produce highest bioluminescence signal. Thus, this system is used to evaluate different mixing mechanisms (FIG. 8), reaction chamber designs and reaction conditions.
PDMS chips with a Y-shaped microchannel with three mixing elements (FIG. 8), with a rectangular cross section in the microchannels (200 μm in width and 30 μm in height) was used to monitor BRET^2 assays. The detection chambers with different diameter and height were located at the end of the microchannels. The emitting bioluminescence was collected by a multimode optical fiber located underneath the detection chamber. The emissions will be split by dichroic block and going through two band pass filters corresponding to emission band of the donor (430 nm-455 nm) and the emission band of the acceptor (515 nm-555 nm) before going into two corresponding photomultiplier tubes (Hamamatsu H7421). […]
Approximately 75% decrease in BRET^2 signal was measured for on-chip reaction at input flow rate of 50 μL/hr (FIG. 12).

Consider `OC[C@H]1O[C@@](CO)(O[C@H]2O[C@H](CO)[C@@H](O)[C@H](O)[C@H]2O)[C@@H](O)[C@@H]1O` [sucrose], for which, at GFP^2—MBP—RLuc2, the “response of BRET biosensor to sugar” value is recorded as “did not respond”. For the same compound, the “increase in BRET^2 ratio over no sugar control, on chip” value in series [1] was 15%.
Regarding thrombin, the kcat of thrombin entry in series [2] was “≈ 85 s^−1”. Further, in the series with GFP^2-RG-RLuc biosensor, the “BRET^H ratio following thrombin cleavage” value is 0.75±0.04 and 0.79±0.05; the “decrease in BRET^H ratio following thrombin cleavage” value is “approximately 32%”. The “change in BRET^2 ratio (GFP/RLuc) after digestion of the sensor” value in series [3] (270 pM thrombin) is on record as “approximately tenfold”. The “decrease in BRET^2 signal, on-chip reaction” value in series [3] (540 nM thrombin, 1 μM sensor, 12.5 μM substrate, two-inlet device, 50 μL/hr) is “Approximately 75%”.
